“Also recorded” adds a separate entry of the source.

The values below come from patent US20240010693A1, “PEPTIDES FROM HUMAN B-CASEIN THAT HAVE ANTI-BACTERIAL ACTIVITY” (priority 2020, published 2024).

Assay [1] has as its system above-mentioned bacterial strains. Kind of assay: Spot assays on bacterial lawns and direct kill assays of synthetic peptides. It counts as cell-based. How it is done: The fractions were dried and reconstituted in water and spotted onto Tryptic soy agar plates that were spread with 100 μL of select bacterial grown overnight in tryptic soy broth.
We have named them HBCA1 and HBCA2.
(§1) All three peptides were tested using direct kills assays. Equal inoculums of indicated bacterial pathogens were incubated either with water (−) or 50 mg/ml of HBCA1, HBCA2 or HBCA2.C. Aliquots were spotted at T=0 min (start of incubation) and at 30 minutes post incubation (T=30 min) on LB-agar plates, and incubated at 37° C. overnight to see growth.

For the next assay, the system named is P. aeruginosa. As to the kind of experiment: Direct kill assay. It counts as cell-based. As to the method: as §1
Assay [2] deals with indicated bacterial pathogens. Kind of assay: Direct kill assay. It counts as cell-based. Conditions: 50 mg/ml. As to the method:
as §1

The subject of another assay is Porphyromonas gingivalis. Kind of assay: Kill assay on TSA plates (5% difibrinated blood). In kind it is cell-based. The text has this:
Porphyromonas gingivalis (a keystone pathogen in chronic periodontitis, and identified in the brains of Alzheimer's patients) is sensitive to HBCA1 and HBCA2 peptides.

The next assay concerns G. vaginalis. As to the kind of experiment: Direct kill assay on HBT bilayer Gardnerella media. It counts as cell-based, Gardnerella vaginalis. How it is done:
When we subjected G. vaginalis to direct kill assays using HBCA1 and HBCA2, we observed that both peptides render G. vaginalis non-viable within 30 minutes, as indicated by loss of bacterial growth on HBT bilayer Gardnerella media (FIG. 9).

In a further assay the test system is E. coli (EHEC). Kind of assay: Killing of pathogenic bacteria. It counts as cell-based. As to the method: as §1
A further assay concerns E. faecalis. Kind of assay: Killing of pathogenic bacteria. It counts as cell-based. How it is done:
as §1

The next assay concerns L. monocytogenes. Kind of assay: Killing of pathogenic bacteria. In kind it is cell-based. As to the method:
as §1

Another assay has as its system S. aureus (MRSA). As to the kind of experiment: Killing of pathogenic bacteria. In kind it is cell-based. How it is done:
as §1

Another assay has as its system S. enteritidis. Kind of assay: Killing of pathogenic bacteria. It counts as cell-based. How it is done:
as §1

The test system of the next assay is K. pneunomiae. As to the kind of experiment: Killing of pathogenic bacteria. It counts as cell-based, K. pneumoniae. How it is done:
as §1

The subject of assay [3] is commensal Lactobacillus strains. As to the kind of experiment: Activity against commensal strains. The conditions noted are these: strains commonly found in infant and adult gut. It counts as cell-based.
The test system of assay [4] is commensal Bifidobacterium strains. Kind of assay: Activity against commensal strains. In kind it is cell-based. Conditions: strains commonly found in infant and adult gut.
The subject of the next assay is K. pneumoniae. Kind of assay: Activity on TSA plates (FIG. 16). In kind it is cell-based. Conditions: 20 mg/ml and 10 mg/ml on TSA plates. As to the method: FIG. 16 depicts activity of HBCA2 peptide against K. pneumoniae at 20 mg/ml and 10 mg/ml on TSA plates.

Consider “RVMPVLKSPTIP (listed as Homo sapiens) [HBCA2]”, for which, in assay [1], the antibacterial activity entry is listed as “showed antibacterial activity”. The “killing of P. aeruginosa” value in the assay with P. aeruginosa was “kills”. Besides, the “loss of viability of P. aeruginosa” value in the assay on P. aeruginosa (50 mg/ml, T=0 min) is “rapidly lost (while mixing at T0)”. In addition, the “relative activity of the peptides in direct kill assays” value in [2] was “more potent in its activity than the larger HBCA1 peptide”. In the assay with Porphyromonas gingivalis, the “killing of Porphyromonas gingivalis” value is reported as “kills” and the “sensitivity of P. gingivalis” value is reported as “sensitive”. Also, in the assay with Porphyromonas gingivalis (upon mixing cells with peptide), the “speed of loss of viability of P. gingivalis” value is “rapid killing; also recorded: rapidly lose viability right at 0 minutes”. Also, the “killing of Gardnerella vaginalis” value in the assay with G. vaginalis is on record as “kills”. In addition, the “killing of E. coli (EHEC)” value in the assay with E. coli (EHEC) is “kills”. Moreover, in the assay on E. faecalis, the “killing of E. faecalis” value was “kills”. The “killing of L. monocytogenes” value with L. monocytogenes is on record as “kills”. Moreover, in the assay on S. aureus (MRSA), the “killing of S. aureus (MRSA)” value was “kills”. Besides, the “killing of S. enteritidis” value in the assay with S. enteritidis was “kills”. In addition, the “killing / viability of K. pneumoniae” value in the assay with K. pneunomiae is recorded as “kills”. Also, the “activity against commensal Lactobacillus strains” value in [3] is recorded as “no detected activity”. Moreover, in [4], the “activity against commensal Bifidobacterium strains” value is “no detected activity”.
RVRPKLKSPRIP [HBCA2.4]: the “relative potency against K. pneumoniae” value in the assay on K. pneumoniae was “most potent of the HBCA peptides”.
Consider “TVYTKGRVMPVLKSPTIPFFDPQI (listed as Homo sapiens) [HBCA1]”, for which the antibacterial activity result in assay [1] was “showed antibacterial activity”. Moreover, the “sensitivity of P. gingivalis” value in the assay with Porphyromonas gingivalis is given as “sensitive”.
